According to US12011444B2, “N-substituted indole derivatives as PGE2 receptor modulators” (Idorsia Pharmaceuticals Ltd, priority 2015, dated 2024):

Experiments:
PTGER2 (EP2) = PTGER2 (EP2) (Homo sapiens (Human), UniProt P43116); experiment: hEP2 b-arrestin assay (PathHunter HEK 293 PTGER2 b-arrestin cells); type: cell-based; details: hEP2 b-arrestin assay (values without asterisk)
Description: (§1) The assay is using the PathHunter™ HEK 293 PTGER2 and PTGER4 b-arrestin cell lines from DiscoverX. The system is based on the Enzyme Fragment Complementation Technology. Two complementing fragments of the b-galactosidase enzyme are expressed within stably transfected cells. The larger portion of b-gal, termed EA for Enzyme Acceptor, is fused to the C-terminus of b-arrestin 2. The smaller fragment, termed ProLink™ tag, is fused to PTGER2 (EP2) or PTRGER4 (EP4) at the C-terminus. Upon activation, b-arrestin is recruited which forces the interaction of ProLink and EA, allowing complementation of the two fragments of b-gal and the formation of a functional enzyme which is capable of hydrolysing the substrate and generating a chemiluminescent signal.
(§2) 5000 cells per well of a 384 well plate (white with white bottom Greiner 781080) are seeded in 20 ul per well of GM. Plate is incubated at 37° C., 5% C02 for 24 hours.
Plate is pre-incubated 15 minutes at 37° C. Then five microliters of PGE2 (final conc. 5 μM) are transferred into the assay plate. Plate is incubated 120 minutes at 37° C.
(§3) Twelve μl of reagent are transferred to the assay plate and incubate for 1 hour at room temperature in the dark. Luminescence counts are read on a BMG Fluostar Optima reader according to manufacturer's instructions. For each compound concentration calculate of the percentage of activity compared to DMSO control value as average±STDEV. (each concentration is measured in duplicate)

PTRGER4 (EP4) = PTRGER4 (EP4) (Homo sapiens (Human), UniProt P35408); experiment: hEP4 b-arrestin assay (PathHunter HEK 293 PTGER4 b-arrestin cells); type: cell-based; details: hEP4 b-arrestin assay (values without asterisk)
Description: as §1, §2
Plate is pre-incubated 15 minutes at 37° C. Then five microliters of PGE2 (final conc. 20 nM) are transferred into the assay plate. Plate is incubated 120 minutes at 37° C.
as §3, with “average±STDEV.” for “average±STDEV. (each concentration is measured in duplicate)”

Chain of PTGER2 (EP2) (P43116 whole entry, the tested form may be a part): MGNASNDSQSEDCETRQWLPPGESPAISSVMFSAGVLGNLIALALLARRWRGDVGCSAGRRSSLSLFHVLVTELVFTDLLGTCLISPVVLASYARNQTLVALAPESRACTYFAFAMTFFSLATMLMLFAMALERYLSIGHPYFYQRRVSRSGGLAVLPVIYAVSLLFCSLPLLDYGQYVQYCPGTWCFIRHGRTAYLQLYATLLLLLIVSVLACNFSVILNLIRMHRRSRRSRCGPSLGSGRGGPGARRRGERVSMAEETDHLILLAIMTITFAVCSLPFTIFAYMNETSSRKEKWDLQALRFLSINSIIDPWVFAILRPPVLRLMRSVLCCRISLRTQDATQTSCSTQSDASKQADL
Chain of PTRGER4 (EP4) (P35408 whole entry, looked up): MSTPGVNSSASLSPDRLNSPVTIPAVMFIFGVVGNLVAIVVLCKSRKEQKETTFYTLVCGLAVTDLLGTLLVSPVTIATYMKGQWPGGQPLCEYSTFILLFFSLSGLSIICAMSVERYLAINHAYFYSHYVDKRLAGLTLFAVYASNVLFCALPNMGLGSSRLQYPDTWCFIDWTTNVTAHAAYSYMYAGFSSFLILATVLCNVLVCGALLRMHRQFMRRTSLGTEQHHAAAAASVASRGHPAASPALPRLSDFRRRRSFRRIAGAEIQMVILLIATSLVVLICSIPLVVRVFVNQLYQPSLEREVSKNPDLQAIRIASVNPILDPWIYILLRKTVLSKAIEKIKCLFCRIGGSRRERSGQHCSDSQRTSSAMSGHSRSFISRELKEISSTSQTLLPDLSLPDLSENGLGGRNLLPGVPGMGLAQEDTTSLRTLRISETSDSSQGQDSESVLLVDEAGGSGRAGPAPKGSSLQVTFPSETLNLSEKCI

SMILES	IC50 (PTGER2 (EP2)) [nM]	IC50 (PTRGER4 (EP4)) [nM]
CCOc1cc(-c2cc(NCCn3c(C)cc4c(OC)ccc(F)c43)ncn2)ccc1OCC(=O)O [Example 810, (2-Ethoxy-4-{6-[2-(7-fluoro-4-methoxy-2-methyl-indol-1-yl)-ethylamino]-pyrimidin-4-yl}-phenoxy)-acetic acid]	9	28
CCOc1cc(-c2cc(NCCn3c(C#N)cc4c(OC)ccc(F)c43)ncn2)sc1C(=O)NS(=O)(=O)c1ccccc1 [Example 814, N-(5-{6-[2-(2-Cyano-7-fluoro-4-methoxy-indol-1-yl)-ethylamino]-pyrimidin-4-yl}-3-ethoxy-thiophene-2-carbonyl)-benzenesulfonamide]	7	2
CCOc1cc(-c2cc(NCCn3c(C#N)cc4c(OC)ccc(F)c43)ncn2)sc1C(=O)NS(=O)(=O)C(C)C [Example 815, Propane-2-sulfonic acid (5-{6-[2-(2-cyano-7-fluoro-4-methoxy-indol-1-yl)-ethylamino]-pyrimidin-4-yl}-3-ethoxy-thiophene-2-carbonyl)-amide]	8	7
COc1ccc(F)c2c1cc(C#N)n2CCNc1cc(-c2ccc(-c3nc[nH]c3C)cc2)ncn1 [Example 819, 7-Fluoro-4-methoxy-1-(2-{6-[4-(5-methyl-1H-imidazol-4-yl)-phenyl]-pyrimidin-4-ylamino}-ethyl)-1H-indole-2-carbonitrile]	7	2
CCOc1cc(-c2cc(NCCn3c(C#N)cc4c(OC)ccc(F)c43)ncn2)ccc1-c1noc(=O)[nH]1 [Example 820]	6	2
COc1ccc(F)c2c1cc(C#N)n2CCNc1cc(-c2ccc(-c3cn(C)c(C)n3)cc2)ncn1 [Example 824, 1-(2-{6-[4-(1,2-Dimethyl-1H-imidazol-4-yl)-phenyl]-pyrimidin-4-ylamino}-ethyl)-7-fluoro-4-methoxy-1H-indole-2-carbonitrile]	8	7
COc1ccc(F)c2c1cc(C#N)n2CCNc1cc(-c2ccc(-c3noc(=O)[nH]3)cc2)ncn1 [Example 825]	14	8
COc1cc(-c2cc(NCCn3c(C#N)cc4c(OC)ccc(F)c43)ncn2)sc1C1(O)COC1 [Example 826, 7-Fluoro-1-(2-{6-[5-(3-hydroxy-oxetan-3-yl)-4-methoxy-thiophen-2-yl]-pyrimidin-4-ylamino}-ethyl)-4-methoxy-1H-indole-2-carbonitrile]	13	8
COc1ccc(F)c2c1cc(C#N)n2CCNc1cc(-c2ccc(-c3cn(C)c(C4CC4)n3)cc2)ncn1 [Example 827, 1-(2-{6-[4-(2-Cyclopropyl-1-methyl-1H-imidazol-4-yl)-phenyl]-pyrimidin-4-ylamino}-ethyl)-7-fluoro-4-methoxy-1H-indole-2-carbonitrile]	16	7
COc1ccc(F)c2c1cc(C#N)n2CCNc1cc(-c2ccc(OCC(=O)O)c(OC(F)(F)F)c2)ncn1 [Example 828, (4-{6-[2-(2-Cyano-7-fluoro-4-methoxy-indol-1-yl)-ethylamino]-pyrimidin-4-yl}-2-trifluoromethoxy-phenoxy)-acetic acid]	10	11
COc1ccc(F)c2c1cc(C#N)n2CCNc1cc(-c2ccc(-c3cnc[nH]3)cc2)ncn1 [Example 829, 7-Fluoro-1-(2-{6-[4-(3H-imidazol-4-yl)-phenyl]-pyrimidin-4-ylamino}-ethyl)-4-methoxy-1H-indole-2-carbonitrile]	15	12
COc1ccc(F)c2c1cc(C#N)n2CCNc1cc(-c2ccc(-c3nc(=O)[nH]o3)cc2)ncn1 [Example 831, 7-Fluoro-1-(2-{6-[4-(3-oxo-2,3-dihydro-[1,2,4]-oxadiazol-5-yl)-phenyl]-pyrimidin-4-ylamino}-ethyl)-4-methoxy-1H-indole-2-carbonitrile]	19	17
CCCOc1cc(-c2cc(NCCn3c(C#N)cc4c(OC)ccc(F)c43)ncn2)ccc1CC(=O)O [Example 833, (4-{6-[2-(2-Cyano-7-fluoro-4-methoxy-indol-1-yl)-ethylamino]-pyrimidin-4-yl}-2-propoxy-phenyl)-acetic acid]	62	27
CCc1cc(-c2cc(NCCn3c(C#N)cc4c(OC)ccc(F)c43)ncn2)ccc1OCC(=O)O [Example 834, (4-{6-[2-(2-Cyano-7-fluoro-4-methoxy-indol-1-yl)-ethylamino]-pyrimidin-4-yl}-2-ethyl-phenoxy)-acetic acid]	15	28
CCOc1cc(-c2cc(NCCn3c(C)cc4c(C)cc(F)cc43)ncn2)ccc1-c1noc(=O)[nH]1 [Example 835, 3-(2-Ethoxy-4-{6-[2-(6-fluoro-2,4-dimethyl-indol-1-yl)-ethylamino]-pyrimidin-4-yl}-phenyl)-[1,2,4]oxadiazol-5(4H)-one]	19	31
[2H]C([2H])(Nc1cc(-c2cc(Cl)c(C(=O)O)c(OCCCC)c2)ncn1)C([2H])([2H])n1c(C)cc2c(OC)ccc(F)c21 [Example 836, 2-butoxy-6-chloro-4-(6-((2-(7-fluoro-4-methoxy-2-methyl-1H-indol-1-yl)ethyl-1,1,2,2-d4)amino)pyrimidin-4-yl)benzoic acid]	7	32

Continued by falling IC50 (PTGER2 (EP2)), values first:

IC50 (PTGER2 (EP2)) [nM]	IC50 (PTRGER4 (EP4)) [nM]	SMILES
6	5	CCc1cc(-c2cc(NCCn3c(C#N)cc4c(OC)ccc(F)c43)ncn2)ccc1O [Example 822, 1-{2-[6-(3-Ethyl-4-hydroxy-phenyl)-pyrimidin-4-ylamino]-ethyl}-7-fluoro-4-methoxy-1H-indole-2-carbonitrile]
5	5	COc1ccc(F)c2c1cc(C#N)n2CCNc1cc(-c2ccc(-c3ncn(C)c3C)cc2)ncn1 [Example 823, 1-(2-{6-[4-(1,5-Dimethyl-1H-imidazol-4-yl)-phenyl]-pyrimidin-4-ylamino}-ethyl)-7-fluoro-4-methoxy-1H-indole-2-carbonitrile]
5	25	COc1ccc(F)c2c1cc(C)n2CCNc1cc(-c2cc(OCC(F)(F)F)c(C(=O)O)s2)ncn1 [Example 832, 5-{6-[2-(7-Fluoro-4-methoxy-2-methyl-indol-1-yl)-ethylamino]-pyrimidin-4-yl}-3-(2,2,2-trifluoro-ethoxy)-thiophene-2-carboxylic acid]
4	5	CCOc1cc(-c2cc(NCCn3c(C#N)cc4c(OC)ccc(F)c43)ncn2)sc1C(=O)NS(=O)(=O)CC [Example 817, Ethanesulfonic acid (5-{6-[2-(2-cyano-7-fluoro-4-methoxy-indol-1-yl)-ethylamino]-pyrimidin-4-yl}-3-ethoxy-thiophene-2-carbonyl)-amide]
4	2	COc1ccc(F)c2c1cc(C#N)n2CCNc1cc(-c2ccc(-c3nc(C)[nH]c3C)cc2)ncn1 [Example 821, 1-(2-{6-[4-(2,5-Dimethyl-1H-imidazol-4-yl)-phenyl]-pyrimidin-4-ylamino}-ethyl)-7-fluoro-4-methoxy-1H-indole-2-carbonitrile]
3	20	CCOc1cc(-c2cc(NCCn3c(C)cc4c(OC)ccc(F)c43)ncn2)ccc1NCC(=O)O [Example 811, (2-Ethoxy-4-{6-[2-(7-fluoro-4-methoxy-2-methyl-indol-1-yl)-ethylamino]-pyrimidin-4-yl}-phenylamino)-acetic acid]
3	12	CCOc1cc(-c2cc(NCCn3c(C)cc4c(OC)ccc(F)c43)ncn2)ccc1-c1noc(=O)[nH]1 [Example 830, 3-(2-Ethoxy-4-{6-[2-(7-fluoro-4-methoxy-2-methyl-indol-1-yl)-ethylamino]-pyrimidin-4-yl}-phenyl)-[1,2,4]oxadiazol-5(4H)-one]
2	976	CCOc1cc(-c2cc(NCCn3c(C)cc4c(F)ccc(C)c43)ncn2)ccc1C(=O)O [Example 812, 2-Ethoxy-4-{6-[2-(4-fluoro-2,7-dimethyl-indol-1-yl)-ethylamino]-pyrimidin-4-yl}-benzoic acid]
2	3	CCOc1cc(-c2cc(NCCn3c(C#N)cc4c(OC)cccc43)ncn2)sc1C(=O)O [Example 813, 5-{6-[2-(2-Cyano-4-methoxy-indol-1-yl)-ethylamino]-pyrimidin-4-yl}-3-ethoxy-thiophene-2-carboxylic acid]
2	1	COc1cc(-c2cc(NCCn3c(C#N)cc4c(OC)ccc(F)c43)ncn2)ccc1-c1c[nH]cn1 [Example 818, 7-Fluoro-1-(2-{6-[4-(1H-imidazol-4-yl)-3-methoxy-phenyl]-pyrimidin-4-ylamino}-ethyl)-4-methoxy-1H-indole-2-carbonitrile]
